According to ChEMBL document CHEMBL1159205, “Fomitellic acids, triterpenoid inhibitors of eukaryotic DNA polymerases from a basidiomycete, Fomitella fraxinea” (J Nat Prod, 1998):
In brackets after ≈: the same amount, converted by molar mass.

Legend:
[1] = organism: Bos taurus; assay: Inhibition of calf DNA polymerase alpha assessed as incorporation of [3H]dTTP
[2] = biological target: DNA polymerase beta (Rattus norvegicus) (UniProt P06766); assay: Inhibition of rat DNA polymerase beta assessed as incorporation of [3H]dTTP

| MIC [1] [µM] | MIC [2] [µM] | Structure (SMILES) |
| --- | --- | --- |
| 75 (≈ 38.8 µg/mL) | 130 (≈ 67.2 µg/mL) | CO[C@@H]1C[C@]2(C)[C@@H]([C@H](C)CCC=C(C)C)CC[C@@]2(C)C2=C1[C@]1(C)[C@@H](CC2=O)[C@@](C)(C(=O)O)[C@@H](O)C[C@H]1O |
| 30 (≈ 14.6 µg/mL) | 90 (≈ 43.8 µg/mL) | CC(C)=CCC[C@@H](C)[C@H]1CC[C@@]2(C)C3=C(CC[C@]12C)[C@]1(C)[C@@H](CC3=O)[C@@](C)(C(=O)O)[C@@H](O)C[C@H]1O |
| 35 (≈ 17 µg/mL) | 95 (≈ 46.2 µg/mL) | CC(C)=CCC[C@@H](C)[C@H]1CC[C@@]2(C)C3=C(CC[C@]12C)[C@]1(C)[C@@H](CC3=O)[C@@](C)(C(=O)O)[C@H](O)C[C@H]1O |
| 75 (≈ 37.7 µg/mL) | 125 (≈ 62.8 µg/mL) | CC(C)=CCC[C@@H](C)[C@H]1CC[C@@]2(C)C3=C([C@H](O)C[C@]12C)[C@]1(C)[C@@H](CC3=O)[C@@](C)(C(=O)O)[C@@H](O)C[C@H]1O |
